≈ marks a conversion by molar mass, not a printed value. Bridge positions count the residues as written; N and C are the ends. Square brackets hold non-standard residues; d marks the D form. Peptide text beside a SMILES is read from it. d(aIle) = CC[C@H](C)[C@@H](N)C(=O)O; dNMeF = CN[C@H](Cc1ccccc1)C(=O)O
Columns and labels:
M. smegmatis ATCC 607 = assay: microbe, parasite or virus in culture; conditions: ATCC 607, 72 h
Protocol: (§1) were grown in Mueller Hinton broth (Oxoid) in triplicate. All incubations were at 37°C. Dilutions were carried out in triplicate. 100 µl of autoclaved Mueller Hinton broth was added to wells 2-12 in a 96-well plate. 200 µl of the peptide was added to well one at a concentration of 256 µg/mL. 100µl of peptide in well one was taken up and pipetted into well two. The mixture was then mixed via pipetting before 100µl was taken up and pipetted into well three. This process was repeated up to well 11. Once […]
(§2) peptide present. Thus, the concentrations (in µg/mL) were: 256, 128, 64, 32, 16, 8, 4, 2, 1, 0.5, 0.25 and no peptide present. Each well was then inoculated with 100µl of bacteria that had been diluted to an […]
(§3) This was repeated three times. The 96-well plates were then incubated at 37°C for 24 hours. The MIC was determined to be the lowest concentration at which there was no growth visible. […]
(§4) was repeated at an altered initial concentration of 64 µg/ml. Therefore, the new concentrations for MIC […]
Middlebrook 7H9 broth (SIGMA) supplemented to 5% Middlebrook ADC (SIGMA) growth

VRE 1: VRE ATCC 700802 = assay: organism not typed; conditions: for MIC (with polysorbate 80): VRE 1, MHB containing polysorbate 80 (0.002%, v/v), 37 °C, 24 h
Protocol: (§5) VIII. MIC testing (extended panel)
(§6) Bacterial cultures were grown overnight i n Mueller-Hinton Agar (MHA) plates and adjusted to a final concentration of 10 5 – 106 CFU/ml. 100 µl of inoculum in Meuller -Hinton broth (MHB) was mixed with equal volume of peptides (dissolved in MHB) at 2x their concentration in a 96 well plate. In parallel experiments, MIC values were determined in the media containing polysorbate 80 (0 .002%, v/v) to […]
(§7) prevent non-specific adsorption of the peptides to plastic surfaces. The final peptides concentrations […]
(§8) Positive and negative controls contained 200 µl of inoculum without any peptide dissolved in broth, respectively. The 96 well plates were then incubated at 37 °C for 24 h. […]
(§9) 80. Strain information: MRSA 1: MRSA ATCC 700699, MRSA 2: MRSA DR 42412 (sputum), MRSA
(§10) 3: MRSA DM21455 (eye). […] Staphylococcus aureus ATCC

VRE 2: VRE ATCC 29212 = assay: organism not typed; conditions: for MIC (with polysorbate 80): VRE 2, MHB containing polysorbate 80 (0.002%, v/v), 37 °C, 24 h
Protocol: as §5, §6, §7, §8, §9, §10

MRSA ATCC 33591 = assay: microbe, parasite or virus in culture; conditions: for MIC: ATCC 33591, 24 h
Protocol: as §1, §2, §3, §4, §5, §6

[1] = test system: MRSA 2: MRSA DR 42412 (sputum); assay: microbe, parasite or virus in culture; conditions: for MIC / MIC (without polysorbate 80): 2: DR 42412 (sputum, 24 h); for MIC (with polysorbate 80): MRSA 2, MHB containing polysorbate 80 (0.002%, v/v)
Protocol: as §5, §6, §7, §8, §9, §10

MRSA DM21455 = assay: Time-kill kinetics; type: cell-based, Methicillin-resistant Staphylococcus aureus; conditions: 0.5 μg mL^–1; MHB containing 0.002% v/v polysorbate 80; 37 °C; average of two independent experiments
Protocol: IX. Time-dependent killing of bacteria by teixobactin analogues 12 and 13 Time-kill kinetics against MRSA DM21455 strains (clinical isolates from patients) was carried out in MHB. Cultures were grown overnight in MHA plates and adjusted to a final inoculum of 10^5 – 10^6 CFU/ml in MHB (containing 0.002% v/v, polysorbate 80) with teixobactin analogues 12 and 13 maintained at a final concentration of 0.5 µg/ml. For vancomycin, the concentration was varied from 0.5 – 16 µg/ml without polysorbate 80. The tubes were then incubated at 37 °C. 100 µl of cell suspension was withdrawn at various time points (0, 2, 4, 8, 24 h), serially diluted (101-105 fold dilutions) and plated onto a MHA plates and incubated for 24 h at 37 °C.
Colonies were then enumerated […]. Colony counting too numerous to count (>300 colonies) was taken as 1010 CFU. Average values from two independent experiments are reported. […]
(also on this page, place not known: polyso rbate vancomycin , concentr ation 80 . wer e µ l (10 1-105 10 10 previously n - TL C three S76: (Ala10-teixobactin) literature.7 Lipid II Lipid II: Compound 8 = 1:1 Lipid II: Compound 16 = 1:1 Lipid II: Compound 8 = 1:2 Lipid II: Compound 16 = 1:2 Lipid II: Compound 8 = 1:4)

[2] = test system: Staphylococcus aureus ATCC 29213; assay: microbe, parasite or virus in culture; conditions: for MIC (with polysorbate 80): S. aureus ATCC 29213, MHB containing polysorbate 80 (0.002%, v/v); for MIC (with polysorbate 80) / MBC: 37 °C, 24 h; for MBC: Staphylococcus aureus ATCC 29213, plated on MHA
Protocol: as §5, §6, §7
(§11) Positive and negative controls contained 200 µl of inoculum without any peptide dissolved in broth, respectively. The 96 well plates were then incubated at 37 °C for 24 h.
(§12) All the experiments were performed in two independent duplicates and the MIC was determined as the […]
(§13) Minimum bactericidal concentration
(§14) The lowest concentration in which no visible colonies could be detected was taken as the MBC.
as §9, §10

[3] = test system: MRSA 3: MRSA DM21455 (eye); assay: microbe, parasite or virus in culture; conditions: for MIC / MIC (without polysorbate 80): 3: DM21455 (eye, 24 h); for MBC: MRSA 3 (MRSA DM21455), plated on MHA; for MBC / MIC (with polysorbate 80): 37 °C, 24 h; for MIC (with polysorbate 80): MRSA 3, MHB containing polysorbate 80 (0.002%, v/v)
Protocol: as §5, §6, §7, §11, §12, §13, §14, §9, §10

MRSA 1: MRSA ATCC 700699 = assay: microbe, parasite or virus in culture; conditions: for MIC / MIC (without polysorbate 80): ATCC 700699, 24 h; for MBC: MRSA 1 (MRSA ATCC 700699), plated on MHA; for MBC / MIC (with polysorbate 80): 37 °C, 24 h; for MIC (with polysorbate 80): MRSA 1, MHB containing polysorbate 80 (0.002%, v/v), two independent duplicates
Protocol: as §5, §6, §7, §11, §12, §13, §14, §9, §10

Structure (SMILES)	MIC (without polysorbate 80) (VRE 1: VRE ATCC 700802; ATCC 700802, 24 h) [mg/L]	MIC (with polysorbate 80) (VRE 1: VRE ATCC 700802) [mg/L]	MIC (without polysorbate 80) (VRE 2: VRE ATCC 29212; ATCC 29212, 24 h) [mg/L]	MIC (with polysorbate 80) (VRE 2: VRE ATCC 29212) [mg/L]	MIC (MRSA ATCC 33591) [μg mL^–1]	MIC [1] [μg mL^–1]	MIC (without polysorbate 80) [1] [mg/L]	MIC (with polysorbate 80) ([1]; 37 °C, 24 h) [mg/L]	MIC (without polysorbate 80) ([2]; ATCC 29213, 24 h) [mg/L]	MIC (with polysorbate 80) [2] [mg/L]	MBC [2] [μg mL^–1]	MIC [3] [μg mL^–1]	MIC (without polysorbate 80) [3] [mg/L]	MBC [3] [μg mL^–1]	MIC (with polysorbate 80) [3] [mg/L]	MIC (MRSA 1: MRSA ATCC 700699) [μg mL^–1]	MIC (without polysorbate 80) (MRSA 1: MRSA ATCC 700699) [mg/L]	MBC (MRSA 1: MRSA ATCC 700699) [μg mL^–1]	MIC (with polysorbate 80) (MRSA 1: MRSA ATCC 700699) [mg/L]	also measured
CC[C@H](C)[C@@H]1NC(=O)[C@H](C)NC(=O)[C@H](NC(=O)[C@H](CO)NC(=O)[C@@H](NC(=O)[C@H](NC(=O)[C@@H](CCC(N)=O)NC(=O)[C@H](CO)NC(=O)[C@@H](NC(=O)[C@@H](Cc2ccccc2)NC)[C@@H](C)CC)[C@@H](C)CC)[C@@H](C)CC)[C@H](C)OC(=O)[C@H]([C@@H](C)CC)NC1=O [Compound 12, Ile10-teixobactin] (H-[dNMeF]IS[dQ][d(aIle)]IS[dT]AII; ester 8-C)	1 (≈ 0.832 µM)	≤ 0.0625	1 (≈ 0.832 µM)	≤ 0.0625	0.25	≤0.0625	2 (≈ 1.66 µM)	≤ 0.0625	1 (≈ 0.832 µM)	≤ 0.0625	0.125	≤0.0625	2 (≈ 1.66 µM)	0.125	≤ 0.0625	0.25	2 (≈ 1.66 µM)	1	0.25 (≈ 0.208 µM)	MIC (M. smegmatis ATCC 607): 0.5 μg mL^–1; time to complete bactericidal activity (MRSA DM21455): ≤ 8 h; MIC ([2]; ATCC 29213, 24 h): ≤0.0625 μg mL^–1
CC[C@H](C)[C@H](NC(=O)[C@@H](Cc1ccccc1)NC)C(=O)N[C@@H](CO)C(=O)N[C@H](CCC(N)=O)C(=O)N[C@@H](C(=O)N[C@H](C(=O)N[C@@H](CO)C(=O)N[C@H]1C(=O)N[C@@H](C)C(=O)N[C@@H](C(C)C)C(=O)N[C@@H]([C@@H](C)CC)C(=O)O[C@H]1C)[C@@H](C)CC)[C@@H](C)CC [Compound 11, Val10-teixobactin] (H-[dNMeF]IS[dQ][d(aIle)]IS[dT]AVI; ester 8-C)	4 (≈ 3.37 µM)	0.5 (≈ 0.421 µM)	4 (≈ 3.37 µM)	0.5 (≈ 0.421 µM)	0.5	0.5	2 (≈ 1.68 µM)	0.5 (≈ 0.421 µM)	2 (≈ 1.68 µM)	0.25 (≈ 0.211 µM)	1	0.25	4 (≈ 3.37 µM)	2	0.25 (≈ 0.211 µM)	1	4 (≈ 3.37 µM)	4	1 (≈ 0.842 µM)	MIC (VRE 1: VRE ATCC 700802; ATCC 700802, 24 h): 0.5 μg mL^–1; MIC (VRE 2: VRE ATCC 29212; ATCC 29212, 24 h): 0.5 μg mL^–1; times better antibacterial activity than Arg10-teixobactin (MRSA ATCC 33591; from MIC against MRSA ATCC 33591): 4 times; MBC ([1]; MRSA 2 (MRSA DR 42412), plated on MHA, 37 °C, 24 h): 4 μg mL^–1

Source: PMC5855875, “Teixobactin analogues reveal enduracididine to be non-essential for highly potent antibacterial activity and lipid II binding” (Chemical Science, 2017)
